Where two headings read alike, the source gives them in different places. *1 amine or outer side, *2 acyl side, *3 side chain or, on linkers, in order; H or OH if unused. Where a SMILES comes first, the peptide text is derived from it. Bridges are numbered along the chain shown (N, C = ends). [ ]: non-standard residue; d: D form. The star is where a group is joined. Orn(4R-OH,5R-OCH2CH2NMe3+) = C[N+](C)(C)CCO[C@@H](N[*:3])[C@H](O)C[C@H](N[*:1])C(=O)[*:2]; pTerphenylCO(4''-OnC5H11) = CCCCCOc1ccc(-c2ccc(-c3ccc(C(=O)*)cc3)cc2)cc1; hTyr(3S-OH,4S-OH) = N[C@H](C(=O)O)[C@H](O)[C@@H](O)c1ccc(O)cc1; Pro(3S-OH,4S-Me) = C[C@H]1CN[C@H](C(=O)O)[C@H]1O; Hyp = O=C(O)[C@@H]1C[C@@H](O)CN1
Tests used:
[1] = Safety and tolerability of a single 400-mg IV infusion of rezafungin in subjects with severe hepatic impairment and matched healthy subjects; format: in vivo, human
Source text: (§1) Abstract Background Rezafungin (RZF) is a novel echinocandin antifungal being developed for treatment of candidemia and invasive candidiasis, and for prevention of invasive fungal diseases among immunosuppressed patients. In the Phase 2 and Phase 3 treatment trials of rezafungin compared with caspofungin (STRIVE [NCT02734862] and ReSTORE [NCT03667690], respectively), patients with severe hepatic impairment (HI) were not included due to lack of caspofungin data in this population. Rezafungin was previously evaluated in patients with moderate hepatic impairment. Here we report an open-label, single-dose study on rezafungin in patients with HI (Child-Pugh class C). Methods To investigate the safety, tolerability, and pharmacokinetics (PK) of RZF in subjects with HI and healthy subjects (HS), 8 subjects with HI and 8 HS matched for age, sex, and body mass index (BMI) were enrolled and received a single 400-mg intravenous 1-hour infusion of RZF. Plasma PK sampling was performed at various time points through 336 hours postdose. RZF PK parameters were derived using non-compartmental analysis. Safety was assessed throughout the study. Results The majority of the HI subjects were White (87.5%) and male (75%) while equal distribution between White and Black or African American was observed among HS (50%) and 75% were male. The mean age of HI subjects was 58 years (range, 41–68 years) and 56.6 years (range, 50–61 years) for the HS. Mean BMI was 29.7 kg/m^2 (range, 24.5–34.3 kg/m^2) for HI subjects and 29.7 kg/m^2 (range, 25.4–34.2 kg/m^2) for the HS. […] Three HI subjects had one adverse event (AE) each (bronchitis, worsening hepatic encephalopathy, hyponatremia), all moderate in severity; one HS had 1 AE of infusion site infiltration mild in severity. […] Table 1. Plasma Rezafungin PK Parameter Estimates in Subjects with Severe Hepatic Impairment or Normal Hepatic Function After a Single 400 mg IV Infusion of Rezafungin Figure 1. […] These findings support no RZF dose adjustment in subjects with severe hepatic impairment. Disclosures Voon Ong, PhD, Cidara Therapeutics (Employee, Shareholder) Taylor Sandison, MD, MPH, Cidara Therapeutics (Employee, Shareholder) Rebeca M. Melara, M.S., Altasciences (contract research organization) (Employee) Thomas C. Marbury, MD, Orlando Clinical Research Center (Employee, Other Financial or Material Support, Equity owner of Orlando Clinical Research Center) Alena Jandourek, MD, Cidara therapeutics (Consultant) Shawn Flanagan, PhD, Cidara Therapeutics (Employee, Shareholder)

[2] = Plasma pharmacokinetics of rezafungin after a single 400-mg IV 1-hour infusion, open-label single-dose study, non-compartmental analysis; format: in vivo, human; settings: for half-life: n = 8, plasma sampling through 336 hours postdose, non-compartmental analysis
Source text: as §1

[3] = HI (Child-Pugh class C, n = 8) versus matched HS (n = 8), plasma, reduction

SMILES: CCCCCOc1ccc(-c2ccc(-c3ccc(C(=O)N[C@H]4C[C@@H](O)[C@@H](OCC[N+](C)(C)C)NC(=O)[C@@H]5[C@@H](O)[C@@H](C)CN5C(=O)[C@H]([C@@H](C)O)NC(=O)[C@H]([C@H](O)[C@@H](O)c5ccc(O)cc5)NC(=O)[C@@H]5C[C@@H](O)CN5C(=O)[C@H]([C@@H](C)O)NC4=O)cc3)cc2)cc1 [RZF, Rezafungin] ({pTerphenylCO(4''-OnC5H11)}-[Orn(4R-OH,5R-OCH2CH2NMe3+)]T[Hyp][hTyr(3S-OH,4S-OH)]T[Pro(3S-OH,4S-Me)]; lactam 1-C)
- adverse events considered related to RZF ([1]; HI and HS subjects, all AEs resolved or resolving by the end of the study): No AEs were considered related to RZF
- tolerability ([1]; HI subjects (Child-Pugh class C)): well tolerated
- number of subjects with an adverse event (AE) ([1]; HI subjects (n = 8), one AE each (bronchitis, worsening hepatic encephalopathy, hyponatremia), all moderate in severity): Three
- number of subjects with an adverse event (AE) ([1]; healthy subjects (n = 8), 1 AE of infusion site infiltration, mild in severity): one
- RZF exposure (AUC) in subjects with HI, lower than that in HS [2, 3]: ~ 30%
- RZF exposure (Cmax) in subjects with HI, lower than that in HS [2, 3]: ~ 30%
- half-life ([2]; both sexes, human, subjects with severe hepatic impairment (HI, Child-Pugh class C), read-out: half-life (converted)): 121 h
- half-life ([2]; healthy subjects (HS) matched for age, sex and BMI): 124 h
